Data published in PMC6332446, “Acylphloroglucinol Derivatives from the South African Helichrysum niveum and Their Biological Activities” (Molecules, 2015).

Tests used:
[1] = Trolox equivalent absorbance capacity (TEAC) assay; conditions: trolox equivalents; absorbance 734 nm, 25 °C
Method: Trolox Equivalent Absorbance Capacity (TEAC) Assay: The total antioxidant capacity of the test samples in terms of TEAC were measured using a previously described method. Absorbance was read at 734 nm at 25 °C in a plate reader and the results were expressed as μM trolox equivalents per milligram dry weight (μM TE/g DW) of the test samples.

[2] = biological target: Acetylcholinesterase (AChE) (Homo sapiens, UniProt P22303); test: biochemical; conditions: 500.00 μg/mL upper concentration limit; read-out: Inhibitory Activities IC50, Acetylcholinesterase (converted)
Method: Acetylcholinesterase Inhibition Assay: Acetylcholinesterase (AChE) inhibitory activity was measured using Ellman’s method as previously described with minor modifications. AChE catalysis the hydrolysis of acetythiocholine iodide (ACTI as substrate) to thiocholine, which can then react with Ellman’s reagent (DTNB) to produce 5-thio-2-nitrobenzoate (yellow color). In the presence of samples (inhibitors), the release of 5-thio-2-nitrobenzoate (yellow color) is reduced and it is monitored by measuring the absorbance at 450 nm.
In a 96-Well plate, the reaction mixture contains 50 µL of samples pre-incubated with 125 µL of 3 mM 5,5ʹ-Dithiobis-(2-nitrobenzoic acid), and 25 µL AChE (2.0 U/mL), in 50 mM tris-HCl buffer (pH 8.0), with 0.1% bovine serum albumin (BSA) for 15 minutes at 25 °C. Subsequently, 25 µL (15 mM) ACTI was added to the incubation mixture and further incubated for 10 min at 25 °C. […] Absorbance was recorded at 450 nm. The percent AChE inhibitory activity is given by: [A0 − (B − C)]/A0 × 100 (3) where A0 = full enzymatic reaction; B = Activity in the presence of sample; and C = Activity without sample.

Rat liver microsomes = conditions: Fe2+-induced, TBARs, samples screened at 50.00 μg/mL, ± STDEV
[3] = Ferric-ion reducing antioxidant power (FRAP) assay; conditions: ascorbic acid equivalents; absorbance 593 nm; ± % STDEV
Method: Ferric-Ion Reducing Antioxidant Power (FRAP) Assay: Working FRAP reagent was prepared in accordance to the method described previously. Absorbance was measured at 593 nm. L-ascorbic acid was used as a standard and the results were expressed as μM ascorbic acid equivalents per milligram dry weight (μM AAE/g DW) of the test samples.

[4] = Copper-initiated prooxidant activity in the ORAC assay; conditions: Cu2+ 18 μM without H2O2, 37 °C; one unit = 1% reduction of area under fluorescein decay curve
Method: (§1) Automated Oxygen Radicals Absorbance Capacity (ORAC) Assay: ORAC was measured according to the method previously described. The method measures the antioxidant scavenging capacity for (a) peroxyl radicals generated by thermal decomposition of 2,2ʹ-azobis ([…]) dihydrochloride (AAPH; ORACROO assay); (b) hydroxyl radical (ORACOH assay), generated by H2O2-Cu^2+ (H2O2, 0.3%; Cu^2+ [as CuSO4], 18 μM, or (c) Cu^2+ [as CuSO4], 18 μM as a transition metal oxidant at 37 °C. ORAC values were expressed as micromoles of trolox equivalents (TE) per milligram of test sample, except when Cu^2+ (without H2O2) was used as an oxidant in the assay. In the presence of Cu^2+ without H2O2, test samples acted as prooxidants rather than antioxidants in the ORAC assay. The copper-initiated prooxidant activity was calculated using [(AreaBlank − AreaSample)/AreaBlank] × 100 and expressed as prooxidant units; one unit equals the prooxidant activity that reduces the area under the fluorescein decay curve by 1% in the ORAC assay.

[5] = biological target: T1, elastase from porcine pancrease (Sus scrofa, UniProt P00772); test: biochemical; conditions: SANA substrate; samples screened at 100.00 μg/mL upper limit; read-out: Inhibitory Activities IC50, Elastase (converted)
T1 construct: from tissue; host or cells: porcine pancreas
Method: Elastase Inhibition Assay: Inhibition of elastase by the test samples was assayed using N-succyl-(Ala)-3-nitroanilide (SANA) as the substrate, monitoring the release of p-nitroanilide by the method described previously. The inhibitory activity determined the intensity of color released during cleavage of SANA by the action of elastase. Briefly, 1 mM SANA was prepared in 0.1 M Tris-HCl buffer pH 8.0 and 200 μL of this solution was added to the 20 μL of sample solution in a 96-Well plate. The mixtures were vortexed and preincubated for 10 min at 25 °C and then 20 μL of elastase from porcine pancrease (0.03 Units/mL) was added. The mixtures were further incubated for 10 min and the absorbance was measured at 410 nm. Methanol was used as control, while oleanolic acid used as a positive control.

mushroom tyrosinase = test: Tyrosinase enzyme assay; assay type: biochemical; conditions: L-Tyrosine substrate; samples screened at 100.00 μg/mL upper limit
Method: Tyrosinase Enzyme Assay: The tyrosinase inhibitory activity was measured using the spectrophotometric method previously described. Samples were dissolved in DMSO to a stock solution of 1 mg/mL, and further dilutions were then done with 50 mM sodium phosphate buffer (pH 6.5) for all working solutions. […] In the wells of a 96-well plate, 70 µL of each sample working solution was combined with 30 μL of tyrosinase (500 Units/mL in sodium phosphate buffer) in triplicate. After incubation at room temperature for 5 min, 110 μL of substrate (2 mM L-Tyrosine) was added to each well. Final concentrations of the crude extract, isolated compounds, and positive control ranged from 1.0–100 μg/mL. Incubation commenced for 30 min at room temperature and the enzyme activity was determined by measuring the absorbance at 490 nm. The percentage of tyrosinase inhibition was calculated as follows: Tyrosinase inhibition (%) = [(A − B) − (C − D)]/(A − B) × 100 (1) where A is the absorbance of the control with the enzyme, B is the absorbance of the control without the enzyme, C is the absorbance of the test sample with the enzyme and D is the absorbance of the test sample without the enzyme.

[6] = ORAC assay, peroxyl radical absorbance capacity (ORACROO); conditions: trolox equivalents; AAPH, 37 °C; ± % STDEV
Method: as §1

[7] = ORAC assay, hydroxyl radical absorbance capacity (ORACOH); conditions: trolox equivalents; H2O2 0.3%, Cu2+ 18 μM, 37 °C; ± % STDEV
Method: as §1

Acetylcholinesterase (AChE), sequence (P22303 32-614, species assumed): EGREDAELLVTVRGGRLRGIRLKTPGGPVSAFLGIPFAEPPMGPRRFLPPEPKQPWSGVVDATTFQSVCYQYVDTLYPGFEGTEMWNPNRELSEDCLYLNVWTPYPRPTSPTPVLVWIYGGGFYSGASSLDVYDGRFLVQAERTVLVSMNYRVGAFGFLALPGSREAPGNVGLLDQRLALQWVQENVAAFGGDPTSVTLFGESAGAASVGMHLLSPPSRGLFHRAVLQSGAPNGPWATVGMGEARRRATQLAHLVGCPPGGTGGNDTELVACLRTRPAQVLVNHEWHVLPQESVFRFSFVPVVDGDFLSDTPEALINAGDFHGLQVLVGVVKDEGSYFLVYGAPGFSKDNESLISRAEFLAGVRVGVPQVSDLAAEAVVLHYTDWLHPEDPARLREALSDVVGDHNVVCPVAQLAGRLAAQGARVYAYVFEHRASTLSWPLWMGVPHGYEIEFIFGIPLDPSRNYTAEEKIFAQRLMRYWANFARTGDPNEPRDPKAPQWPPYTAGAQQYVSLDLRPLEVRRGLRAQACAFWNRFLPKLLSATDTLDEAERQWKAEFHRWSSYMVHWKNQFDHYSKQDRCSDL
T1 sequence (P00772 27-266): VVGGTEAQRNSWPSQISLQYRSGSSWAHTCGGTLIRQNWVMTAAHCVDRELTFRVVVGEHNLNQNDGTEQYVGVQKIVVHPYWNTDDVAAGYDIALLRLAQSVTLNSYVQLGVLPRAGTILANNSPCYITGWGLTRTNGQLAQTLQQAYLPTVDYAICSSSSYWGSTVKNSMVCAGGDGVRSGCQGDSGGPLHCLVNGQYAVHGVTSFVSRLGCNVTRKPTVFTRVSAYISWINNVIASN

| SMILES | TEAC [1] [μM TE/g DW] | IC50 [2] [µM] | Anti-Lipid peroxidation IC50 (Rat liver microsomes) [µg/mL] | FRAP [3] [µMAAE/g] | Prooxidant (copper-initiated prooxidant activity) [4] [prooxidant units] | IC50 [5] [µM] | Inhibitory Activities IC50, Tyrosinase (mushroom tyrosinase) [µg/mL] | Peroxyl (ORAC peroxyl radical absorbance capacity) [6] [µM TE/g] | Hydroxyl (ORACOH) [7] |
| --- | --- | --- | --- | --- | --- | --- | --- | --- | --- |
| CC(C)C(=O)c1c(O)cc(O)c2c1OC(C)(C)[C@@H](O)C2 [Compound 3, 8-(2-methyl-1-propanone)-3S,5,7-trihydroxyl-2,2-dimethylchromane] | 6001.40 ± 5.63 | 974 | >50.00 | 155.65 ± 12.02 | 41.73 ± 8.20 | 90.3 | 80.31 ± 3.31 | 3937.78 ± 25.85 | 5.99 ± 4.52 × 10^6 µMTE/g |
| CC(=O)OC/C(C)=C/Cc1c(O)cc(O)c(C(=O)C(C)C)c1O [Compound 10, caespitate] | 8705.14 ± 1.83 | 777 | 20.50 ± 4.01 | 1019.28 ± 1.79 | 92.31 ± 1.59 | 182 | >100.00 | 16735.55 ± 21.72 | 16.26 ± 15.39 × 10^6 µMTE/g |
| O=C(O[C@@H]1Cc2c(O)cc(O)cc2O[C@@H]1c1cc(O)c(O)c(O)c1)c1cc(O)c(O)c(O)c1 [EGCG, epigallocatechin gallate, reference compound] | 11545.44 ± 17.28 | – | 1.04 ± 1.02 | 3326.45 ± 5.76 | 6.48 ± 1.19 | – | – | – | 3.91 ± 4.65 × 10^6 µMTE/g |
| CC1(C)CC[C@]2(C)CC=C3[C@](C)(CCC4[C@@]5(C)CC[C@H](O)[C@](C)(CO)C5CC[C@@]34C)C2C1 (stereo partly drawn) [Compound 11, 3β-24-dihydroxyterexer-14-ene] | 1323.61 ± 1.76 | 707 | >50.00 | 197.99 ± 3.90 | 31.38 ± 7.00 | > 226 | >100.00 | 1193.10 ± 1.68 | 0.89 ± 7.34 × 10^6 µMTE/g |
| CC(=O)OC/C(C)=C/Cc1c(O)cc(O)c(C(=O)c2ccccc2)c1O [Compound 1, 1-benzoyl-3(3-methylbut-2-enylacetate)-phloroglucinol] | 19545.00 ± 10.25 | 752 | 5.12 ± 0.90 | 2530.54 ± 0.92 | 8.92 ± 1.15 | > 281 | 35.63 ± 4.67 | – | 64.85 ± 10.95 × 10^6 µMTE/g |
| CCC(C)C(=O)c1c(O)cc(OCC=C(C)C)cc1O (centres unmarked) [Compound 4, 1-(2-methylbutanone)-4-O-prenyl-phloroglucinol] | 1629.10 ± 2.03 | 981 | 44.62 ± 2.08 | 194.27 ± 1.78 | 7.02 ± 4.02 | 164 | >100.00 | 5406.65 ± 1.39 | 3.92 ± 14.47 × 10^6 µMTE/g |
| CCCC(=O)c1c(O)cc(O)c(C/C=C(\C)COC(C)=O)c1O [Compound 8, 1-butanone-3-(3-methylbut-2-enylacetate)-phloroglucinol] | 6757.40 ± 4.69 | 769 | 27.56 ± 0.63 | 1203.02 ± 2.07 | 76.59 ± 0.27 | 197 | >100.00 | 14218.17 ± 12.36 | 16.70 ± 1.25 × 10^6 µMTE/g |
| C=C(C)[C@@H](O)Cc1c(O)cc(O)c(C(=O)c2ccccc2)c1O [Compound 2, 1-benzoyl-3(2S-hydroxyl-3-methylbut-3-enyl)-phloroglucinol] | 43615.73 ± 6.66 | 852 | 3.55 ± 1.92 | 4950.08 ± 0.65 | 756.90 ± 1.98 | > 318 | 26.72 ± 5.05 | – | 94.97 ± 5.88 × 10^6 µMTE/g |
| CC(C)=CCc1c(O)cc(O)c(C(=O)C(C)C)c1O [Compound 9, 1-(2-methylpropanone)-3-prenylphloroglucinol] | 4423.32 ± 3.11 | – | 20.95 ± 2.62 | 1096.01 ± 1.12 | 69.54 ± 0.29 | 233 | >100.00 | 13639.27 ± 17.62 | 24.24 ± 1.71 × 10^6 µMTE/g |
